{"source": "paper PMC3748009", "about": "“Novel Small-Molecule AMP-Activated Protein Kinase Allosteric Activator with Beneficial Effects in db/db Mice” (PLoS ONE, 2013)", "key": {"human AMPK α1(1–312)": {"target": "T1, human AMPK α1(1–312) (Homo sapiens, UniProt Q13131)", "T1 construct": "the constitutively active kinase domain (KD) α1(1–312) in SPA assay; made in house", "T1 sequence (Q13131 10-321)": "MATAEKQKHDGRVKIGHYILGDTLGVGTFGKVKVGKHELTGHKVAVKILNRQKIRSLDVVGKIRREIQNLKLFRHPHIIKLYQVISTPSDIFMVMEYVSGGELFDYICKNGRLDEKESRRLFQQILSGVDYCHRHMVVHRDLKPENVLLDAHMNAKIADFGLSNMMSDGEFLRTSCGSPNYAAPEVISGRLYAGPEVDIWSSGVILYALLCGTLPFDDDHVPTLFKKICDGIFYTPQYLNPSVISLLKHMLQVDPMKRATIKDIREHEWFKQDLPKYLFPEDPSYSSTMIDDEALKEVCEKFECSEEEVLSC", "assay": "SPA, constitutively active kinase domain", "format": "biochemical", "conditions": "various concentrations", "method": "(§1) Before the SPA assay, 200 nmol/l recombinant AMPK protein (α1β1γ1, α2β1γ1, α1β2γ1, α2β2γ1, α1(1–394), α1(1–335), α1(1–312)) was constructed, expressed, purified and fully phosphorylated as described previously. The SPA reactions were performed in 96-well plates in a final volume of 50 µl containing 20 mmol/l Tris-HCl, pH 7.5, 5 mmol/l MgCl2, 1 mmol/l DTT, 2 µmol/l biotin-SAMS, 2 µmol/l ATP and 7.4×10^3 Bq/well [γ-^33P]ATP. The reactions were initiated by the addition of 50 nmol/l recombinant AMPK protein to the reaction solutions, followed by incubation at 30°C for 2 hr. The reactions were then terminated by the addition of 40 µl of stop solution containing 80 µg streptavidin-coated SPA beads per well, 50 mmol/l EDTA and 0.1% Triton X-100 in PBS, pH 7.5, followed by incubation for 1 hr. Finally, 160 µl of suspension solution containing 2.4 mol/l CsCl, 50 mmol/l EDTA and 0.1% Triton X-100 in PBS, pH 7.5, was added to the reaction solution to suspend the SPA beads completely. The SPA signals were measured in a Wallac Microbeta plate counter (PerkinElmer, Waltham, MA, USA) 30 min later."}, "[1]": {"target": "T2, Recombinant human protein phosphatase-2Cα (PP2Cα) (Homo sapiens, UniProt P35813)", "T2 construct": "purchased Abcam (Cambridge, UK)", "T2 sequence (P35813 1-382)": "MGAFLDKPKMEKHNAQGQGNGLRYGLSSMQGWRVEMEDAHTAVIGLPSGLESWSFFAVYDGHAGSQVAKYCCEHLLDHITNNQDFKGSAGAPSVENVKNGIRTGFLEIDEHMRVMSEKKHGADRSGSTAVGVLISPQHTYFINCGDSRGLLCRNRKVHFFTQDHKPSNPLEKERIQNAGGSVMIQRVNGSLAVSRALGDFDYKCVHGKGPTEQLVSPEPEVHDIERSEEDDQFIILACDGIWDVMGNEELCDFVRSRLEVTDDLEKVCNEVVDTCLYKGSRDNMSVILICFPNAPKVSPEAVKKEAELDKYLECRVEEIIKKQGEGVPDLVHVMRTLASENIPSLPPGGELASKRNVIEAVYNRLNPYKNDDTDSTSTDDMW", "assay": "PP2Cα activity with pNPP as substrate", "format": "biochemical", "conditions": "varying concentrations of ZLN024", "method": "Recombinant human protein phosphatase-2Cα (PP2Cα) was obtained from Abcam (Cambridge, UK). PP2Cα activity was measured using pNPP as a substrate. The activity was measured in a SpectraMAX 340 plate reader at 37°C and […] for 120 sec. The assay was carried out in a 96-well plate in a final volume of 100 µl containing 50 mmol/l Tris-HCl, pH 7.6, 2 mmol/l DTT, 10 mmol/l MnCl2 and 10 mmol/l pNPP; the PP2Cα enzyme concentration was 400nmol/l."}, "L6 myotubes [2]": {"test_system": "L6 myotubes", "assay": "AMPK and ACC phosphorylation (Western blot) in L6 myotubes", "format": "cell-based", "from_the_text": "(§2) These assays were described previously, [25]."}, "L6 myotubes [3]": {"test_system": "L6 myotubes", "assay": "Mitochondrial membrane potential in L6 myotubes", "format": "cell-based", "conditions": "various concentrations, 3 hr, vs DMSO", "from_the_text": "as §2"}, "L6 myotubes [4]": {"test_system": "L6 myotubes", "assay": "Adenine nucleotide measurement (ADP/ATP ratio) in L6 myotubes", "format": "cell-based", "conditions": "various concentrations, 3 hr, vs DMSO", "from_the_text": "as §2"}, "L6 myotubes [5]": {"test_system": "L6 myotubes", "assay": "Glucose uptake in L6 myotubes", "format": "cell-based", "conditions": "3 hr, concentration-dependent", "from_the_text": "as §2"}, "rat primary hepatocytes [6]": {"test_system": "rat primary hepatocytes", "assay": "AMPK and ACC phosphorylation in rat primary hepatocytes", "format": "cell-based", "conditions": "3 hr", "from_the_text": "as §2"}, "rat primary hepatocytes [7]": {"test_system": "rat primary hepatocytes", "assay": "ADP/ATP ratio in rat primary hepatocytes", "format": "cell-based", "conditions": "3 hr", "from_the_text": "as §2"}, "rat primary hepatocytes [8]": {"test_system": "rat primary hepatocytes", "assay": "Fatty acid synthesis ([14C] acetate incorporation) in rat primary hepatocytes", "format": "cell-based", "conditions": "insulin 10 nmol/l, 24 hr exposure", "method": "Fatty acid synthesis in rat primary hepatocytes was assayed by measuring [^14C] acetate incorporation into lipids. Rat hepatocytes were treated for 20 hr with ZLN024 at the concentrations described in FBS-free DMEM with or without 10 nmol/l insulin, followed by 4 hr incubation in fresh medium containing 0.1 µCi/ml sodium [^14C] acetate (3.7×103 Bq/ml). Thereafter, cells were washed three times by ice-cold PBS and analyzed as previously described, [22]."}, "AMPK α1(1–335) [9]": {"target": "T3, AMPK α1(1–335) (Homo sapiens, UniProt Q13131)", "T3 sequence (Q13131 10-344)": "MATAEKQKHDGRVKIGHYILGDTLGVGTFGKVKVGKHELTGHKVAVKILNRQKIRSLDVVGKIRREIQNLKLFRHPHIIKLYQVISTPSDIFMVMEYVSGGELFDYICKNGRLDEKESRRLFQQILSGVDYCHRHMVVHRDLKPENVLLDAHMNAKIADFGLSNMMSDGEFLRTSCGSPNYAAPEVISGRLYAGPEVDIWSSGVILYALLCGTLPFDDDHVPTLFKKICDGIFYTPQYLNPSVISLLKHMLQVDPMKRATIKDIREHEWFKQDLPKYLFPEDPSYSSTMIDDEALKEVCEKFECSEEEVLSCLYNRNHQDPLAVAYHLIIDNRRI", "assay": "SPA, inactive α1 subunit truncation", "format": "biochemical", "parameters": "α1(1–394), α1(1–335), α1(1–312); made in house", "method": "as §1"}, "AMPK α1(1–394) [10]": {"target": "T4, AMPK α1(1–394) (Homo sapiens, UniProt Q13131)", "T4 sequence (Q13131 10-403)": "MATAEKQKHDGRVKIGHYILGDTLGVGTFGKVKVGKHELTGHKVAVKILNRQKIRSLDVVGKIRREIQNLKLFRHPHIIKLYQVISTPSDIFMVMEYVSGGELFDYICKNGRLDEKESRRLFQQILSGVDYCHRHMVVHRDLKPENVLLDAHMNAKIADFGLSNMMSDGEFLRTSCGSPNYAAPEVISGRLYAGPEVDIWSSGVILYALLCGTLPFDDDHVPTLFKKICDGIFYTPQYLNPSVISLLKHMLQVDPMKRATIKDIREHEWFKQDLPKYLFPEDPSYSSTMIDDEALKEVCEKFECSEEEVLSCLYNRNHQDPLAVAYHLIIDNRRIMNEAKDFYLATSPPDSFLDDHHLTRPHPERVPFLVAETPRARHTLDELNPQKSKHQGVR", "assay": "SPA, inactive α1 subunit truncation", "format": "biochemical", "parameters": "α1(1–394), α1(1–335), α1(1–312); made in house", "method": "as §1"}, "AMPK α1(1–335) [11]": {"target": "T3, AMPK α1(1–335)", "assay": "Dephosphorylation of AMPK α1 truncation by PP2Cα", "format": "biochemical", "parameters": "dephosphorylation by PP2Cα on AMPK α1(1–394) and α1(1–335)", "conditions": "Fig. S1B", "method": "(§3) The dephosphorylation of AMPK was performed as described previously, [24]."}, "AMPK α1(1–394) [12]": {"target": "T4, AMPK α1(1–394)", "assay": "Dephosphorylation of AMPK α1 truncation by PP2Cα", "format": "biochemical", "parameters": "dephosphorylation by PP2Cα on AMPK α1(1–394) and α1(1–335)", "conditions": "Fig. S1A", "method": "as §3"}}, "data": [{"compound": "Cc1ccc(OCCSc2ncccn2)c(Br)c1", "note": "[ZLN024]", "values": [{"measurement": "effect on activity of constitutively active kinase domain α1(1–312)", "setting": "human AMPK α1(1–312)", "result": "did not induce significant changes"}, {"measurement": "effect on PP2Cα activity", "setting": "[1]", "result": "no significant inhibition"}, {"measurement": "phosphorylation of AMPK and ACC", "setting": "L6 myotubes [2]; 3 hr incubation, concentration-dependent", "result": "stimulated"}, {"measurement": "time to maximal effect on AMPK and ACC phosphorylation", "setting": "L6 myotubes [2]; ZLN024 20 µmol/l", "result": "≤ 30", "unit": "min"}, {"measurement": "time to start of increase of AMPK and ACC phosphorylation", "setting": "L6 myotubes [2]; ZLN024 20 µmol/l", "result": "≤ 15", "unit": "min"}, {"measurement": "mitochondrial membrane potential (MMP)", "setting": "L6 myotubes [3]", "result": "not affected"}, {"measurement": "ADP/ATP ratio", "setting": "L6 myotubes [4]", "result": "not affected"}, {"measurement": "glucose uptake", "setting": "L6 myotubes [5]", "result": "stimulated"}, {"measurement": "phosphorylation of ACC", "setting": "rat primary hepatocytes [6]", "result": "obviously increased"}, {"measurement": "phosphorylation of AMPK", "setting": "rat primary hepatocytes [6]", "result": "slightly activated"}, {"measurement": "ADP/ATP ratio", "setting": "rat primary hepatocytes [7]", "result": "not affected"}, {"measurement": "insulin stimulated synthesis of fatty acid", "setting": "rat primary hepatocytes [8]", "result": "significantly decreased"}, {"measurement": "maximal activation of α1(1–335)", "setting": "AMPK α1(1–335) [9]", "result": 2.8, "unit": "fold"}, {"measurement": "EC50", "setting": "AMPK α1(1–335) [9]; read-out: EC50, activation of α1(1–335)", "result": 2.23, "unit": "µM"}, {"measurement": "maximal activation of α1(1–394)", "setting": "AMPK α1(1–394) [10]", "result": 2.3, "unit": "fold"}, {"measurement": "EC50", "setting": "AMPK α1(1–394) [10]; read-out: EC50, activation of α1(1–394)", "result": 0.92, "unit": "µM"}, {"measurement": "effect on dephosphorylation of AMPK α1(1–335) by PP2Cα", "setting": "AMPK α1(1–335) [11]", "result": "did not affect the dephosphorylation"}, {"measurement": "effect on dephosphorylation of AMPK α1(1–394) by PP2Cα", "setting": "AMPK α1(1–394) [12]", "result": "did not affect the dephosphorylation"}]}]}
